Laboratory results taken from PubChem BioAssay AID1259407 (Chemical Carcinogenesis Research Information System (CCRIS), 2018).
Active and inactive are the calls of the source. The rule behind the calls is not given here.

Test system: CCRIS mutagenicity, Ames/micronucleus/aberration tests
Assay: CCRIS mutagenicity studies
[1] = Test System: AMES SALMONELLA TYPHIMURIUM, Strain/Indicator: TA97, Metabolic Activation: HAMSTER, LIVER, S-9, AROCLOR 1254 (10%), Method: PREINCUBATION
[2] = Test System: AMES SALMONELLA TYPHIMURIUM, Strain/Indicator: TA97, Metabolic Activation: NONE, Method: PREINCUBATION
[3] = Test System: AMES SALMONELLA TYPHIMURIUM, Strain/Indicator: TA97, Metabolic Activation: RAT, LIVER, S-9, AROCLOR 1254 (10%), Method: PREINCUBATION
[4] = Test System: AMES SALMONELLA TYPHIMURIUM, Strain/Indicator: TA98, Metabolic Activation: HAMSTER, LIVER, S-9, AROCLOR 1254 (10%), Method: PREINCUBATION
[5] = Test System: AMES SALMONELLA TYPHIMURIUM, Strain/Indicator: TA98, Metabolic Activation: NONE, Method: PREINCUBATION
[6] = Test System: AMES SALMONELLA TYPHIMURIUM, Strain/Indicator: TA98, Metabolic Activation: RAT, LIVER, S-9, AROCLOR 1254 (10%), Method: PREINCUBATION
[7] = Test System: AMES SALMONELLA TYPHIMURIUM, Strain/Indicator: TA100, Metabolic Activation: HAMSTER, LIVER, S-9, AROCLOR 1254 (10%), Method: PREINCUBATION
[8] = Test System: AMES SALMONELLA TYPHIMURIUM, Strain/Indicator: TA100, Metabolic Activation: NONE, Method: PREINCUBATION
[9] = Test System: AMES SALMONELLA TYPHIMURIUM, Strain/Indicator: TA100, Metabolic Activation: RAT, LIVER, S-9, AROCLOR 1254 (10%), Method: PREINCUBATION
[10] = Test System: AMES SALMONELLA TYPHIMURIUM, Strain/Indicator: TA1535, Metabolic Activation: HAMSTER, LIVER, S-9, AROCLOR 1254 (10%), Method: PREINCUBATION
[11] = Test System: AMES SALMONELLA TYPHIMURIUM, Strain/Indicator: TA1535, Metabolic Activation: NONE, Method: PREINCUBATION
[12] = Test System: AMES SALMONELLA TYPHIMURIUM, Strain/Indicator: TA1535, Metabolic Activation: RAT, LIVER, S-9, AROCLOR 1254 (10%), Method: PREINCUBATION

CC(Cl)Cl
mutagenic call (End Point: IN VIVO CHROMOSOMAL ABERRATIONS, Test System: BONE MARROW, Species: MOUSE, Strain/Sex: SWISS-WEBSTER/MALE, Route: INTRAPERITONEAL): active; positive (structural changes)
mutagenic call (End Point: IN VIVO MICRONUCLEUS, Test System: BONE MARROW, Species: MOUSE, Strain/Sex: SWISS-WEBSTER/MALE, Route: INTRAPERITONEAL): active; positive (dose-dependent)
mutagenic call [1]: inactive; negative
mutagenic call (Test System: AMES SALMONELLA TYPHIMURIUM, Strain/Indicator: TA97, Metabolic Activation: HAMSTER, LIVER, S-9, AROCLOR 1254 (30%), Method: PREINCUBATION): inactive; negative
mutagenic call [2]: inactive; negative
mutagenic call [3]: inactive; negative
mutagenic call (Test System: AMES SALMONELLA TYPHIMURIUM, Strain/Indicator: TA97, Metabolic Activation: RAT, LIVER, S-9, AROCLOR 1254 (30%), Method: PREINCUBATION): inactive; negative
mutagenic call [4]: inactive; negative
mutagenic call (Test System: AMES SALMONELLA TYPHIMURIUM, Strain/Indicator: TA98, Metabolic Activation: HAMSTER, LIVER, S-9, AROCLOR 1254 (30%), Method: PREINCUBATION): inactive; negative
mutagenic call [5]: inactive; negative
mutagenic call [6]: inactive; negative
mutagenic call (Test System: AMES SALMONELLA TYPHIMURIUM, Strain/Indicator: TA98, Metabolic Activation: RAT, LIVER, S-9, AROCLOR 1254 (30%), Method: PREINCUBATION): inactive; negative
mutagenic call [7]: inactive; negative
mutagenic call (Test System: AMES SALMONELLA TYPHIMURIUM, Strain/Indicator: TA100, Metabolic Activation: HAMSTER, LIVER, S-9, AROCLOR 1254 (30%), Method: PREINCUBATION): inactive; negative
mutagenic call [8]: inactive; negative
mutagenic call [9]: inactive; negative
mutagenic call (Test System: AMES SALMONELLA TYPHIMURIUM, Strain/Indicator: TA100, Metabolic Activation: RAT, LIVER, S-9, AROCLOR 1254 (30%), Method: PREINCUBATION): inactive; negative
mutagenic call [10]: inactive; negative
mutagenic call (Test System: AMES SALMONELLA TYPHIMURIUM, Strain/Indicator: TA1535, Metabolic Activation: HAMSTER, LIVER, S-9, AROCLOR 1254 (30%), Method: PREINCUBATION): inactive; negative
mutagenic call [11]: inactive; negative
mutagenic call [12]: inactive; negative
mutagenic call (Test System: AMES SALMONELLA TYPHIMURIUM, Strain/Indicator: TA1535, Metabolic Activation: RAT, LIVER, S-9, AROCLOR 1254 (30%), Method: PREINCUBATION): inactive; negative
mutagenic call (Test System: AMES SALMONELLA TYPHIMURIUM, Strain/Indicator: TA1537, Metabolic Activation: HAMSTER, LIVER, S-9, AROCLOR 1254 (30%), Method: PREINCUBATION): inactive; negative
mutagenic call (Test System: AMES SALMONELLA TYPHIMURIUM, Strain/Indicator: TA1537, Metabolic Activation: NONE, Method: PREINCUBATION): inactive; negative
mutagenic call (Test System: AMES SALMONELLA TYPHIMURIUM, Strain/Indicator: TA1537, Metabolic Activation: RAT, LIVER, S-9, AROCLOR 1254 (30%), Method: PREINCUBATION): inactive; negative

Clc1ccccc1C(c1ccccc1)C(c1ccccc1)c1ccccc1Cl (configuration not stated)
mutagenic call (Test System: Mouse lymphoma, Strain/Indicator: L5178Y (tk+/tk-), Metabolic Activation: None, Method: Suspension/plate): inactive; negative
mutagenic call (Test System: Mouse lymphoma, Strain/Indicator: L5178Y (tk+/tk-), Metabolic Activation: Rat, Liver, S-9, Aroclor 1254, Method: Suspension/plate): active; equivocal (previous evaluation positive)

Oc1cccc2c1sc1ccccc12
mutagenic call (Test System: CHINESE HAMSTER OVARY, Strain/Indicator: CHO-K1-BH4 (HGPRT)/6-THIOGUANINE, Metabolic Activation: RAT, LIVER, S-9, AROCLOR (4%)): active; positive

O=C(O)c1ccc([N+](=O)[O-])o1
mutagenic call (Test System: AMES SALMONELLA TYPHIMURIUM, Strain/Indicator: TA98(1,8-DNP6), Metabolic Activation: NONE, Method: STANDARD PLATE): inactive; negative
mutagenic call (Test System: AMES SALMONELLA TYPHIMURIUM, Strain/Indicator: TA98(1,8-DNP6), Metabolic Activation: RAT, LIVER, S-9, 3-METHYLCHOLANTHRENE, Method: STANDARD PLATE): inactive; negative
mutagenic call (Test System: AMES SALMONELLA TYPHIMURIUM, Strain/Indicator: TA98(NR), Metabolic Activation: NONE, Method: STANDARD PLATE): inactive; negative
mutagenic call (Test System: AMES SALMONELLA TYPHIMURIUM, Strain/Indicator: TA98(NR), Metabolic Activation: RAT, LIVER, S-9, 3-METHYLCHOLANTHRENE, Method: STANDARD PLATE): inactive; negative
mutagenic call (Test System: AMES SALMONELLA TYPHIMURIUM, Strain/Indicator: TA98, Metabolic Activation: NONE, Method: STANDARD PLATE): inactive; negative
mutagenic call (Test System: AMES SALMONELLA TYPHIMURIUM, Strain/Indicator: TA98, Metabolic Activation: RAT, LIVER, S-9, 3-METHYLCHOLANTHRENE, Method: STANDARD PLATE): inactive; negative
mutagenic call (Test System: AMES SALMONELLA TYPHIMURIUM, Strain/Indicator: TA100, Metabolic Activation: NONE, Method: STANDARD PLATE): active; positive

Oc1ccc2ccccc2c1N=Nc1ccccc1
mutagenic call (End Point: IN VITRO CHROMOSOMAL ABERRATIONS, Test System: CHO CELLS, Metabolic Activation: NONE): inactive; negative
mutagenic call (End Point: IN VITRO CHROMOSOMAL ABERRATIONS, Test System: CHO CELLS, Metabolic Activation: RAT, LIVER, S-9, AROCLOR 1254): inactive; negative
mutagenic call [1]: inactive; negative
mutagenic call [2]: inactive; negative
mutagenic call [3]: active; positive
mutagenic call [4]: inactive; negative
mutagenic call [5]: inactive; negative
mutagenic call (Test System: AMES SALMONELLA TYPHIMURIUM, Strain/Indicator: TA98, Metabolic Activation: RAT, BLADDER, S-9, PCB, Method: FLUCTUATION TEST): inactive; negative
mutagenic call [6]: active; positive
mutagenic call [7]: inactive; negative
mutagenic call [8]: inactive; negative
mutagenic call (Test System: AMES SALMONELLA TYPHIMURIUM, Strain/Indicator: TA100, Metabolic Activation: RAT, BLADDER, S-9, PCB, Method: FLUCTUATION TEST): inactive; negative
mutagenic call [9]: inactive; negative
mutagenic call [10]: inactive; negative
mutagenic call [11]: inactive; negative
mutagenic call [12]: inactive; negative
mutagenic call (Test System: AMES SALMONELLA TYPHIMURIUM, Strain/Indicator: TA1538, Metabolic Activation: HAMSTER, LIVER, S-9, AROCLOR 1254, Method: STANDARD PLATE): active; positive
